Source: US12077503B2, “Substituted cyclic amides and their use as herbicides” (FMC CORPORATION, priority 2015, dated 2024)

Assays:
Type in all cases: in vivo
[1] = tested on: velvetleaf (Abutilon theophrasti); test: Test G Post-Emergence Protocol; details: Abutilon theophrasti, post-emergence, 312 h, read-out: Velvetleaf damage rating; for pest or weed control at 15.625 g/ha: 15.625 g ai/ha, evaluated after 13 days (100=total damage to plant; 0=no damage to plant); for pest or weed control at 62.5 g/ha: 62.5 g ai/ha; for pest or weed control at 62.5 g/ha / pest or weed control at 250 g/ha: evaluated after 13 days, 100=total damage to plant, 0=no damage to plant; for pest or weed control at 250 g/ha: 250 g ai/ha
Outline: (§1)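 Values are percent visual injury at 13 days after treatment (0 none, 100 total). Treatment was a post-emergence spray at 15.625, 62.5 or 250 g/ha on 8-day-old pot plants kept at 24/16 °C.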

[2] = tested on: redroot pigweed (Amaranthus retroflexus); test: Test G Post-Emergence Protocol; details: Amaranthus retroflexus, post-emergence, 312 h, read-out: Pigweed, Redroot damage rating; for pest or weed control at 15.625 g/ha: 15.625 g ai/ha, evaluated after 13 days (100=total damage to plant; 0=no damage to plant); for pest or weed control at 62.5 g/ha: 62.5 g ai/ha; for pest or weed control at 62.5 g/ha / pest or weed control at 250 g/ha: evaluated after 13 days, 100=total damage to plant, 0=no damage to plant; for pest or weed control at 250 g/ha: 250 g ai/ha
Outline: as §1

[3] = tested on: giant foxtail (Setaria faberi); test: Test G Post-Emergence Protocol; details: Setaria faberi, post-emergence, 312 h, read-out: Foxtail, Giant damage rating; for pest or weed control at 15.625 g/ha: 15.625 g ai/ha, evaluated after 13 days (100=total damage to plant; 0=no damage to plant); for pest or weed control at 62.5 g/ha: 62.5 g ai/ha; for pest or weed control at 62.5 g/ha / pest or weed control at 250 g/ha: evaluated after 13 days, 100=total damage to plant, 0=no damage to plant; for pest or weed control at 250 g/ha: 250 g ai/ha
Outline: as §1

corn (Zea mays) [4] = test: Test G Post-Emergence Protocol; details: Zea mays, post-emergence, 312 h, read-out: Corn damage rating; for plant injury at 15.625 g/ha: 15.625 g ai/ha, evaluated after 13 days (100=total damage to plant; 0=no damage to plant); for plant injury at 62.5 g/ha: 62.5 g ai/ha; for plant injury at 62.5 g/ha / plant injury at 250 g/ha: evaluated after 13 days, 100=total damage to plant, 0=no damage to plant; for plant injury at 250 g/ha: 250 g ai/ha
Outline: as §1

[5] = tested on: ivy-leaved morning glory (Ipomoea hederacea); test: Test G Post-Emergence Protocol; details: Ipomoea, post-emergence, 312 h, read-out: Morningglory, Ivy-leaved damage rating; for pest or weed control at 15.625 g/ha: 15.625 g ai/ha, evaluated after 13 days (100=total damage to plant; 0=no damage to plant); for pest or weed control at 62.5 g/ha: 62.5 g ai/ha; for pest or weed control at 62.5 g/ha / pest or weed control at 250 g/ha: evaluated after 13 days, 100=total damage to plant, 0=no damage to plant; for pest or weed control at 250 g/ha: 250 g ai/ha
Outline: as §1

[6] = tested on: barnyardgrass (Echinochloa crus-galli); test: Test G Post-Emergence Protocol; details: Echinochloa crus-galli, post-emergence, 312 h, read-out: Barnyardgrass damage rating; for pest or weed control at 15.625 g/ha: 15.625 g ai/ha, evaluated after 13 days (100=total damage to plant; 0=no damage to plant); for pest or weed control at 62.5 g/ha: 62.5 g ai/ha; for pest or weed control at 62.5 g/ha / pest or weed control at 250 g/ha: evaluated after 13 days, 100=total damage to plant, 0=no damage to plant; for pest or weed control at 250 g/ha: 250 g ai/ha
Outline: as §1

[7] = tested on: velvetleaf (Abutilon theophrasti); test: Test G Pre-Emergence Protocol; details: Abutilon theophrasti, pre-emergence, 312 h, evaluated after 13 days; for pest or weed control at 15.625 g/ha: 15.625 g ai/ha; for pest or weed control at 15.625 g/ha / pest or weed control at 250 g/ha: read-out: Velvetleaf damage rating (100=total damage to plant; 0=no damage to plant); for pest or weed control at 62.5 g/ha: 62.5 g ai/ha, 100=total damage to plant, 0=no damage to plant, read-out: Velvetleaf damage rating; for pest or weed control at 250 g/ha: 250 g ai/ha
Outline: (§2)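 Visual injury (0–100) at day 13 after a single pre-emergence spray. Rates: 15.625, 62.5, 250 g/ha in acetone–water 50:50 with 0.5% Tween 20. Growth conditions: 24/16° C, 14 h light, 65% humidity.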

[8] = tested on: redroot pigweed (Amaranthus retroflexus); test: Test G Pre-Emergence Protocol; details: Amaranthus retroflexus, pre-emergence, 312 h, evaluated after 13 days; for pest or weed control at 15.625 g/ha: 15.625 g ai/ha; for pest or weed control at 15.625 g/ha / pest or weed control at 250 g/ha: read-out: Pigweed, Redroot damage rating (100=total damage to plant; 0=no damage to plant); for pest or weed control at 62.5 g/ha: 62.5 g ai/ha, 100=total damage to plant, 0=no damage to plant, read-out: Pigweed, Redroot damage rating; for pest or weed control at 250 g/ha: 250 g ai/ha
Outline: as §2

[9] = tested on: giant foxtail (Setaria faberi); test: Test G Pre-Emergence Protocol; details: Setaria faberi, pre-emergence, 312 h, evaluated after 13 days; for pest or weed control at 15.625 g/ha: 15.625 g ai/ha; for pest or weed control at 15.625 g/ha / pest or weed control at 250 g/ha: read-out: Foxtail, Giant damage rating (100=total damage to plant; 0=no damage to plant); for pest or weed control at 62.5 g/ha: 62.5 g ai/ha, 100=total damage to plant, 0=no damage to plant, read-out: Foxtail, Giant damage rating; for pest or weed control at 250 g/ha: 250 g ai/ha
Outline: as §2

corn (Zea mays) [10] = test: Test G Pre-Emergence Protocol; details: Zea mays, pre-emergence, 312 h, evaluated after 13 days; for plant injury at 15.625 g/ha: 15.625 g ai/ha; for plant injury at 15.625 g/ha / plant injury at 250 g/ha: read-out: Corn damage rating (100=total damage to plant; 0=no damage to plant); for plant injury at 62.5 g/ha: 62.5 g ai/ha, 100=total damage to plant, 0=no damage to plant, read-out: Corn damage rating; for plant injury at 250 g/ha: 250 g ai/ha
Outline: as §2

[11] = tested on: ivy-leaved morning glory (Ipomoea hederacea); test: Test G Pre-Emergence Protocol; details: Ipomoea, pre-emergence, 312 h, evaluated after 13 days; for pest or weed control at 15.625 g/ha: 15.625 g ai/ha; for pest or weed control at 15.625 g/ha / pest or weed control at 250 g/ha: read-out: Morningglory, Ivy-leaved damage rating (100=total damage to plant; 0=no damage to plant); for pest or weed control at 62.5 g/ha: 62.5 g ai/ha, 100=total damage to plant, 0=no damage to plant, read-out: Morningglory, Ivy-leaved damage rating; for pest or weed control at 250 g/ha: 250 g ai/ha
Outline: as §2

[12] = tested on: barnyardgrass (Echinochloa crus-galli); test: Test G Pre-Emergence Protocol; details: Echinochloa crus-galli, pre-emergence, 312 h, evaluated after 13 days; for pest or weed control at 15.625 g/ha: 15.625 g ai/ha; for pest or weed control at 15.625 g/ha / pest or weed control at 250 g/ha: read-out: Barnyardgrass damage rating (100=total damage to plant; 0=no damage to plant); for pest or weed control at 62.5 g/ha: 62.5 g ai/ha, 100=total damage to plant, 0=no damage to plant, read-out: Barnyardgrass damage rating; for pest or weed control at 250 g/ha: 250 g ai/ha
Outline: as §2

Row | Structure (SMILES) | pest or weed control at 15.625 g/ha [1] [%] | pest or weed control at 62.5 g/ha [1] [%] | pest or weed control at 250 g/ha [1] [%] | pest or weed control at 15.625 g/ha [2] [%] | pest or weed control at 62.5 g/ha [2] [%] | pest or weed control at 250 g/ha [2] [%] | pest or weed control at 15.625 g/ha [3] [%] | pest or weed control at 62.5 g/ha [3] [%] | pest or weed control at 250 g/ha [3] [%] | plant injury at 15.625 g/ha (corn (Zea mays) [4]) [%] | plant injury at 62.5 g/ha (corn (Zea mays) [4]) [%] | plant injury at 250 g/ha (corn (Zea mays) [4]) [%] | pest or weed control at 15.625 g/ha [5] [%] | pest or weed control at 62.5 g/ha [5] [%] | pest or weed control at 250 g/ha [5] [%] | pest or weed control at 15.625 g/ha [6] [%] | pest or weed control at 62.5 g/ha [6] [%] | pest or weed control at 250 g/ha [6] [%] | pest or weed control at 15.625 g/ha [7] [%] | pest or weed control at 62.5 g/ha [7] [%] | also measured
1 | COc1cc(OC(F)(F)F)cc(C2CN(C)C(=O)C2C(=O)Nc2cccc(F)c2F)c1 (stereo not drawn) [Compound 1697] | 0 | 30 | 30 | 20 | 60 | 70 | 80 | 80 | 80 | 10 | 80 | 80 | 30 | 60 | 60 | 60 | 70 | 90 | 0 | 0 | pest or weed control at 250 g/ha [7]: 20%; pest or weed control at 15.625 g/ha [8]: 0%; pest or weed control at 62.5 g/ha [8]: 0%; pest or weed control at 250 g/ha [8]: 20%; pest or weed control at 15.625 g/ha [9]: 70%; pest or weed control at 62.5 g/ha [9]: 80%; pest or weed control at 250 g/ha [9]: 80%; plant injury at 15.625 g/ha (corn (Zea mays) [10]): 0%; plant injury at 62.5 g/ha (corn (Zea mays) [10]): 40%; plant injury at 250 g/ha (corn (Zea mays) [10]): 50%; pest or weed control at 15.625 g/ha [11]: 0%; pest or weed control at 62.5 g/ha [11]: 0%; pest or weed control at 250 g/ha [11]: 0%; pest or weed control at 15.625 g/ha [12]: 40%; pest or weed control at 62.5 g/ha [12]: 70%; pest or weed control at 250 g/ha [12]: 80%
2 | CN1C[C@H](c2ccc(C(F)(F)F)cc2)[C@@H](C(=O)Nc2cccc(F)c2S(C)(=O)=O)C1=O (racemic) [Compound 1680] | 0 | 10 | 0 | 50 | 60 | 60 | 30 | 80 | 80 | 0 | 0 | 0 | 10 | 10 | 20 | 20 | 20 | 50 | 10 | 10 | pest or weed control at 250 g/ha [7]: 90%; pest or weed control at 15.625 g/ha [8]: 20%; pest or weed control at 62.5 g/ha [8]: 20%; pest or weed control at 250 g/ha [8]: 70%; pest or weed control at 15.625 g/ha [9]: 20%; pest or weed control at 62.5 g/ha [9]: 60%; pest or weed control at 250 g/ha [9]: 90%; plant injury at 15.625 g/ha (corn (Zea mays) [10]): 0%; plant injury at 62.5 g/ha (corn (Zea mays) [10]): 0%; plant injury at 250 g/ha (corn (Zea mays) [10]): 0%; pest or weed control at 15.625 g/ha [11]: 0%; pest or weed control at 62.5 g/ha [11]: 0%; pest or weed control at 250 g/ha [11]: 0%; pest or weed control at 15.625 g/ha [12]: 0%; pest or weed control at 62.5 g/ha [12]: 20%; pest or weed control at 250 g/ha [12]: 60%
